For one test, the target named is Ikaros (Homo sapiens, UniProt Q13422+Q96SW2). The test is described as follows: Helios Cellular Degradation Assay (Ikaros readout). The class given is cell-based. Set-up: endogenous in cells; host or cells: Jurkat. The following applies: Jurkat cells, 72 h incubation, Ikaros-Alexa488 antibody staining, flow cytometry; read-out: Ikaros Jurkat IC50. How it is done:
(§1) Jurkat cells were plated at 80,000 cells/well in 40 μL RPMI+10% FBS in a 384 well cell culture plate prior to using acoustic dispensing technology for adding compound of interest. Cell cultures were incubated for 72 h at 37° C. and 5% C02. In order to facilitate analysis, cell cultures were spun down at 200 rpm for 5 min and the supernatant was discarded. After shaking the plate to dislodge the cell pellet, cells were resuspended in 50 μL of Fixation Buffer (eBioScience FoxP3 buffer set 00-5523-00) for 60 min at room temperature. After centrifuging and discarding the supernatant, cells were permeabilized with 50 μL of Permeabilization buffer (eBioScience FoxP3 buffer set 00-5523-00) for 10 min at room temperature. Following permeabilization, cells were spun down and the supernatant was replaced with 20 μL fluorescently labelled antibodies against Helios, Ikaros and Aiolos or corresponding Isotype controls in 1× Permeabilization buffer (Ikaros-Alexa488 [Biolegend, Cat #368408, 1:50], Helios-PE [CST, Cat #29360, 1:50], Aiolos-Alexa647 [Biolegend, Cat #371106Biolegend, 1:25]) and staining reactions were incubated for 1 h at room temperature; protected from light. Subsequently, 30 μL of 1× Permeabilization buffer was added prior to centrifuging the cells and discarding the supernatant. Stained cells were resuspended in 25 μL of flow cytometry staining buffer (PBS+0.2% BSA) and analyzed using an Intellicyt Ique Plus flow cytometer.
Background: A flow cytometer gives signals particle by particle.

In a further test the target is Helios (Homo sapiens, UniProt Q96SW2+Q9UKS7). The test is described as follows: Helios Cellular Degradation Assay (Helios readout). The class given is cell-based. Set-up: endogenous in cells; host or cells: Jurkat. The following applies: Jurkat cells, 72 h incubation, Helios-PE antibody staining, flow cytometry; read-out: Helios Jurkat IC50. How it is done: as §1
Sequence of Helios (Q9UKS7 whole entry): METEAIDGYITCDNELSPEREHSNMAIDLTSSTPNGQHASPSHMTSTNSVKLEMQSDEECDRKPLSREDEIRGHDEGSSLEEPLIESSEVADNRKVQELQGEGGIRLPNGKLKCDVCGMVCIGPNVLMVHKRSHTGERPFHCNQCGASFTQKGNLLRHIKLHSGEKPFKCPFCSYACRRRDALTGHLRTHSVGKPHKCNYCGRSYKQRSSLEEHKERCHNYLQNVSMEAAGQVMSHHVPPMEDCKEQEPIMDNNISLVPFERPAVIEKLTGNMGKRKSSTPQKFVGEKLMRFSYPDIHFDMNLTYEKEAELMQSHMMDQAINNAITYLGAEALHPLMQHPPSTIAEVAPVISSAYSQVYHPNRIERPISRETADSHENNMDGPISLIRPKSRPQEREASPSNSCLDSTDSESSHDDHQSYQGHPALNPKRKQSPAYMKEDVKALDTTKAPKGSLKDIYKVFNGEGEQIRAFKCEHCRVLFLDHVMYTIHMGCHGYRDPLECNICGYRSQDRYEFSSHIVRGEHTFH
Sequence of Helios (Q96SW2 whole entry): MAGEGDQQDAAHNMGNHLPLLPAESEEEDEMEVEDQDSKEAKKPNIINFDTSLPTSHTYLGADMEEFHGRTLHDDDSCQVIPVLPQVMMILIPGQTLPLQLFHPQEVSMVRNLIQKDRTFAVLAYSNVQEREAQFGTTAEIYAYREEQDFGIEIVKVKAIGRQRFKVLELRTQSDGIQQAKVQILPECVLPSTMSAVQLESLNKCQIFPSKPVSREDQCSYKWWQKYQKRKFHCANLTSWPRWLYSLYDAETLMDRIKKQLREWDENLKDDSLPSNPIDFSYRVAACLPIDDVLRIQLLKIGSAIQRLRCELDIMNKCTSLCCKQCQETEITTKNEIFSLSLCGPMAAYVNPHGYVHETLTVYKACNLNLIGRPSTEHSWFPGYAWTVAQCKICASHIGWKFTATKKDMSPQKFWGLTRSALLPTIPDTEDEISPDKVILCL
Sequence of Helios (Q16531 whole entry partner): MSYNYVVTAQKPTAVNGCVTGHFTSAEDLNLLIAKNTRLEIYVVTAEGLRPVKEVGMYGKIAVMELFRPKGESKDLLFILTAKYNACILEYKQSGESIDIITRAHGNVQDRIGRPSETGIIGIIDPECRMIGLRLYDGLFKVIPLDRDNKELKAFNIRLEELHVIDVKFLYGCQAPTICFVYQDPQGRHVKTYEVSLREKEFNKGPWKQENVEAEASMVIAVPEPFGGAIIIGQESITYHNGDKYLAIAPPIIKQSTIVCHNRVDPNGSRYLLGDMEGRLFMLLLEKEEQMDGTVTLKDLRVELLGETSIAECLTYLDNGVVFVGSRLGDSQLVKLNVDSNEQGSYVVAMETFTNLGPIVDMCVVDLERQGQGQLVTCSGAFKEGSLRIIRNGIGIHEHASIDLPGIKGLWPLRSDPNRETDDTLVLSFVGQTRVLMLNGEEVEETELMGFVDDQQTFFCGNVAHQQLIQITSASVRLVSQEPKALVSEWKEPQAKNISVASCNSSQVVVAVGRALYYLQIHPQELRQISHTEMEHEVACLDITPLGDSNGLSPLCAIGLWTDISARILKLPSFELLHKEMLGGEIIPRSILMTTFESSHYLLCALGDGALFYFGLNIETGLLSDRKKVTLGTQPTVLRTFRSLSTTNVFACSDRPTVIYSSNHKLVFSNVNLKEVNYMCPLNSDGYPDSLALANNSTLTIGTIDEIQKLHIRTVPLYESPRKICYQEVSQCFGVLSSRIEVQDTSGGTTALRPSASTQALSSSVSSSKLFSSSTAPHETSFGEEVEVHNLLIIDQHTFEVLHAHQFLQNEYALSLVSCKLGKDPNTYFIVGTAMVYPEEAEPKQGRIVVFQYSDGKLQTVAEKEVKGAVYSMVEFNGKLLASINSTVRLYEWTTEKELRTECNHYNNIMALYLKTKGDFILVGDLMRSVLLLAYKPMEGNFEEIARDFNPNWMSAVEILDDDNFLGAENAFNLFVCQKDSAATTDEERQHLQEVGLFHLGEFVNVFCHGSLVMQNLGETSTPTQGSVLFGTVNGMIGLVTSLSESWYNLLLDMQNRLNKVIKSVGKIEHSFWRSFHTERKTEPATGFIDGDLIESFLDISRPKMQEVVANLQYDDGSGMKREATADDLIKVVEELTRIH

Sequence of Ikaros (Q13422 whole entry): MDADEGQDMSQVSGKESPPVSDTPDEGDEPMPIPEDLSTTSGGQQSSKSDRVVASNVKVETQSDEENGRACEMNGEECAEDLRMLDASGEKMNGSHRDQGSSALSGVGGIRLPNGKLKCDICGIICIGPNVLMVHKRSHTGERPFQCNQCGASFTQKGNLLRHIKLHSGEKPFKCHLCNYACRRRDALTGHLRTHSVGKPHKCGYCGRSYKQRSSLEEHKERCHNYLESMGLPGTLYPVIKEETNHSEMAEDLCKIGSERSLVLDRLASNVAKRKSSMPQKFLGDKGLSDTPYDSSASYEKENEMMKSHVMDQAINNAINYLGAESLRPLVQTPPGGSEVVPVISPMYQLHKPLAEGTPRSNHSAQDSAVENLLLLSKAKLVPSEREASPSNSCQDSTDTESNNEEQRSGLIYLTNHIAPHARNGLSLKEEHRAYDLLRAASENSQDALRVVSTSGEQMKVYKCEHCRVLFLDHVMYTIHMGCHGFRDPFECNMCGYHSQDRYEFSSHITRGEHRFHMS
Sequence of Ikaros (Q96SW2 whole entry): as the sequence (Q96SW2 whole entry) above
Sequence of Ikaros (Q16531 whole entry partner): as the sequence (Q16531 whole entry partner) above

Regarding `Cc1ccc2c(-c3ccc4c(c3)CN(C3CCC(=O)NC3=O)C4=O)nccc2c1` (centres unmarked) [Example 23, 3-[5-(6-methylisoquinolin-1-yl)-1-oxo-2,3-dihydro-1H-isoindol-2-yl]piperidine-2,6-dione], the DC50 on Ikaros was found to be 130 nM; on Helios, 6 nM.

Consider `Cc1cc(-c2ccc3c(c2)CN(C2CCC(=O)NC2=O)C3=O)nc2ccccc12` (centres unmarked) [Example 24, 3-[5-(4-methylquinolin-2-yl)-1-oxo-2,3-dihydro-1H-isoindol-2-yl]piperidine-2,6-dione], for which the DC50 on Ikaros was > 20000 nM; at Helios it was 9 nM.

For the molecule `Nc1cc2ccccc2c(-c2ccc3c(c2)CN(C2CCC(=O)NC2=O)C3=O)n1` (centres unmarked) [Example 25, 3-[5-(3-aminoisoquinolin-1-yl)-1-oxo-2,3-dihydro-1H-isoindol-2-yl]piperidine-2,6-dione], the DC50 on Ikaros came out at 8400 nM; on Helios it was 48 nM.

As for `O=C1CCC(N2Cc3cc(-c4cnc5cc(F)ccc5n4)ccc3C2=O)C(=O)N1` (centres unmarked) [Example 26, 3-[5-(6-fluoroquinoxalin-2-yl)-1-oxo-2,3-dihydro-1H-isoindol-2-yl]piperidine-2,6-dione], the DC50 is > 20000 nM at Ikaros and 98 nM at Helios.

Consider `O=C1CCC(N2Cc3cc(-c4ccc5cc(Cl)ccc5n4)ccc3C2=O)C(=O)N1` (centres unmarked) [Example 27, 3-[5-(6-chloroquinolin-2-yl)-1-oxo-2,3-dihydro-1H-isoindol-2-yl]piperidine-2,6-dione], for which the DC50 at Ikaros is > 20000 nM; at Helios it was 25 nM.

On to `O=C1CCC(N2Cc3cc(-c4ccc5ccc(Cl)cc5n4)ccc3C2=O)C(=O)N1` (centres unmarked) [Example 28, 3-[5-(7-chloroquinolin-2-yl)-1-oxo-2,3-dihydro-1H-isoindol-2-yl]piperidine-2,6-dione], for which the results for the DC50 on Ikaros and at Helios were > 20000 nM and 57 nM, respectively.

Turning to `COc1ccc2nc(-c3ccc4c(c3)CN(C3CCC(=O)NC3=O)C4=O)ccc2c1` (centres unmarked) [Example 29, 3-[5-(6-methoxyquinolin-2-yl)-1-oxo-2,3-dihydro-1H-isoindol-2-yl]piperidine-2,6-dione], the DC50 on Ikaros was > 20000 nM; at Helios it was 25 nM.

Regarding `CCOC(=O)c1nc2ccccc2nc1-c1ccc2c(c1)CN(C1CCC(=O)NC1=O)C2=O` (centres unmarked) [Example 30, ethyl 3-[2-(2,6-dioxopiperidin-3-yl)-1-oxo-2,3-dihydro-1H-isoindol-5-yl]quinoxaline-2-carboxylate], the DC50 on Ikaros and at Helios was > 20000 nM each time.

Consider `COC(=O)c1ccc2nc(-c3ccc4c(c3)CN(C3CCC(=O)NC3=O)C4=O)ccc2c1` (centres unmarked) [Example 31, methyl 2-[2-(2,6-dioxopiperidin-3-yl)-1-oxo-2,3-dihydro-1H-isoindol-5-yl]quinoline-6-carboxylate], for which the DC50 on Ikaros and at Helios was > 20000 nM in each case.

Consider `Cc1cc2ccccc2nc1-c1ccc2c(c1)CN(C1CCC(=O)NC1=O)C2=O` (centres unmarked) [Example 32, 3-[5-(3-methylquinolin-2-yl)-1-oxo-2,3-dihydro-1H-isoindol-2-yl]piperidine-2,6-dione], for which the DC50 is > 20000 nM on Ikaros and 480 nM at Helios.

Take `COc1cccc2ccc(-c3ccc4c(c3)CN(C3CCC(=O)NC3=O)C4=O)nc12` (centres unmarked) [Example 33, 3-[5-(8-methoxyquinolin-2-yl)-1-oxo-2,3-dihydro-1H-isoindol-2-yl]piperidine-2,6-dione]: the DC50 at Ikaros was > 20000 nM; on Helios, 120 nM.

With `O=C1CCC(N2Cc3cc(-c4ccc5cccc(Cl)c5n4)ccc3C2=O)C(=O)N1` (centres unmarked) [Example 34, 3-[5-(8-chloroquinolin-2-yl)-1-oxo-2,3-dihydro-1H-isoindol-2-yl]piperidine-2,6-dione], the DC50 was > 20000 nM on Ikaros and 70 nM on Helios.

For the molecule `O=C1CCC(N2Cc3cc(-c4ncc5cc(F)ccc5n4)ccc3C2=O)C(=O)N1` (centres unmarked) [Example 35, 3-[5-(6-fluoroquinazolin-2-yl)-1-oxo-2,3-dihydro-1H-isoindol-2-yl]piperidine-2,6-dione], the DC50 at Ikaros is > 20000 nM; on Helios it was 53 nM.

In the case of `O=C1CCC(N2Cc3cc(-c4nc5ccccc5cc4Cl)ccc3C2=O)C(=O)N1` (centres unmarked) [Example 36, 3-[5-(3-chloroquinolin-2-yl)-1-oxo-2,3-dihydro-1H-isoindol-2-yl]piperidine-2,6-dione], the values for the DC50 on Ikaros and on Helios were > 20000 nM and 110 nM, respectively.

Turning to `O=C1CCC(N2Cc3cc(-c4cc(O)c5ccccc5n4)ccc3C2=O)C(=O)N1` (centres unmarked) [Example 37, 3-[5-(4-hydroxyquinolin-2-yl)-1-oxo-2,3-dihydro-1H-isoindol-2-yl]piperidine-2,6-dione], the values for the DC50 on Ikaros and on Helios were > 20000 nM and 2400 nM, respectively.

For `O=C1CCC(N2Cc3cc(-c4ccc5cc(F)ccc5n4)ccc3C2=O)C(=O)N1` (centres unmarked) [Example 38, 3-[5-(6-fluoroquinolin-2-yl)-1-oxo-2,3-dihydro-1H-isoindol-2-yl]piperidine-2,6-dione], the DC50 was > 20000 nM on Ikaros and 22 nM on Helios.

As to `Cc1ccc2nc(-c3ccc4c(c3)CN(C3CCC(=O)NC3=O)C4=O)ccc2c1` (centres unmarked) [Example 39, 3-[5-(6-methylquinolin-2-yl)-1-oxo-2,3-dihydro-1H-isoindol-2-yl]piperidine-2,6-dione], the DC50 is > 20000 nM at Ikaros and 25 nM at Helios.

As for `O=C1CCC(N2Cc3cc(-c4ccc5cc(O)ccc5n4)ccc3C2=O)C(=O)N1` (centres unmarked) [Example 40, 3-[5-(6-hydroxyquinolin-2-yl)-1-oxo-2,3-dihydro-1H-isoindol-2-yl]piperidine-2,6-dione], the DC50 at Ikaros was > 20000 nM; on Helios it was 19 nM.

With `COC(=O)c1ccc2cnc(-c3ccc4c(c3)CN(C3CCC(=O)NC3=O)C4=O)nc2c1` (centres unmarked) [Example 41, methyl 2-[2-(2,6-dioxopiperidin-3-yl)-1-oxo-2,3-dihydro-1H-isoindol-5-yl]quinazoline-7-carboxylate], the DC50 on Ikaros and on Helios was > 20000 nM each time.

On to `C[Si](C)(C)CCn1nnc2c(-c3ccc4c(c3)CN(C3CCC(=O)NC3=O)C4=O)nc(N)nc21` (centres unmarked) [Example 42, 3-(5-{5-amino-3-[2-(trimethylsilyl)ethyl]-3H-[1,2,3]triazolo[4,5-d]pyrimidin-7-yl}-1-oxo-2,3-dihydro-1H-isoindol-2-yl)piperidine-2,6-dione], for which the DC50 at Ikaros is 3600 nM; at Helios, 110 nM.

Consider `Nc1nc(-c2ccc3c(c2)CN(C2CCC(=O)NC2=O)C3=O)c2nc[nH]c2n1` (centres unmarked) [Example 43, 3-[5-(2-amino-9H-purin-6-yl)-1-oxo-2,3-dihydro-1H-isoindol-2-yl]piperidine-2,6-dione], for which the DC50 at Ikaros and at Helios was > 20000 nM each time.

On to `Nc1nc(-c2ccc3c(c2)CN(C2CCC(=O)NC2=O)C3=O)nc2nc[nH]c12` (centres unmarked) [Example 44, 3-[5-(6-amino-7H-purin-2-yl)-1-oxo-2,3-dihydro-1H-isoindol-2-yl]piperidine-2,6-dione], for which the figures for the DC50 on Ikaros and at Helios were > 20000 nM and 98 nM, respectively.

For the molecule `CCn1ncc2c(-c3ccc4c(c3)CN(C3CCC(=O)NC3=O)C4=O)nc(N)nc21` (centres unmarked) [Example 45, 3-(5-{6-amino-1-ethyl-1H-pyrazolo[3,4-d]pyrimidin-4-yl}-1-oxo-2,3-dihydro-1H-isoindol-2-yl)piperidine-2,6-dione], the DC50 is > 20000 nM at Ikaros and 430 nM on Helios.

For `Nc1nc(-c2ccc3c(c2)CN(C2CCC(=O)NC2=O)C3=O)cc2[nH]ccc(=O)c12` (centres unmarked) [Example 47, 3-[5-(5-Amino-4-oxo-1,4-dihydro-1,6-naphthyridin-7-yl)-1-oxo-2,3-dihydro-1H-isoindol-2-yl]piperidine-2,6-dione], the DC50 on Ikaros is > 20000 nM; on Helios, 220 nM.

On to `CC(=O)Nc1nc(-c2ccc3c(c2)CN(C2CCC(=O)NC2=O)C3=O)cc2ccccc12` (centres unmarked) [Example 48, N-{3-[2-(2,6-Dioxopiperidin-3-yl)-1-oxo-2,3-dihydro-1H-isoindol-5-yl]isoquinolin-1-yl}acetamide], for which the DC50 was > 20000 nM at Ikaros and 90 nM on Helios.

Consider `CN(C)c1nc(-c2ccc3c(c2)CN(C2CCC(=O)NC2=O)C3=O)cc2ccccc12` (centres unmarked) [Example 49, 3-{5-[1-(Dimethylamino)isoquinolin-3-yl]-1-oxo-2,3-dihydro-1H-isoindol-2-yl}piperidine-2,6-dione], for which the DC50 at Ikaros is > 20000 nM; at Helios, 37 nM.

For `CNc1nc(-c2ccc3c(c2)CN(C2CCC(=O)NC2=O)C3=O)cc2ccccc12` (centres unmarked) [Example 50, 3-{5-[1-(Methylamino)isoquinolin-3-yl]-1-oxo-2,3-dihydro-1H-isoindol-2-yl}piperidine-2,6-dione], the figures for the DC50 at Ikaros and on Helios were > 20000 nM and 11 nM, respectively.

As to `CNc1nc(-c2ccc3c(c2)CN(C2CCC(=O)NC2=O)C3=O)cc2ncccc12` (centres unmarked) [Example 51, 3-{5-[5-(Methylamino)-1,6-naphthyridin-7-yl]-1-oxo-2,3-dihydro-1H-isoindol-2-yl}piperidine-2,6-dione], the DC50 is > 20000 nM on Ikaros and 26 nM on Helios.

The values above are taken from patent US12570671B2 (BRISTOL-MYERS SQUIBB COMPANY, priority 2020, dated 2026).
